Source: patent publication US20130014428A1, “METHODS OF MONITORING AND CONTROLLING THE WALNUT TWIG BEETLE, PITYOPHTHORUS JUGLANDIS” (The United States of America as Represented by the …, priority 2011, published 2013)

What was measured:
WTB [1] = experiment: Trap type: clear sticky panel vs 4-unit Lindgren funnel traps baited with X; assay type: in vivo, Pityophthorus juglandis; details: for trap catches, female WTB / trap catches, male WTB: 5 mg/d, 15 ml load
Procedure: In another set of experiments, the response of WTB to clear sticky panel traps and 4-unit Lindgren funnel traps was tested. Both were baited with 3-methyl-2-buten-1-ol (5 mg/d, 15 ml load). The clear plexiglass panel traps were coated with Stikem Special (Seabright Labs, Emeryville, Calif.). The experiment was conducted in late spring in a native riparian stand of J. hindsii at Shadow Cliffs Regional Park, Alameda Co., Calif. The pairs of traps were hung at a height of 3 m in the crowns of J. hindsii and arranged in six spatial blocks. Treatments were re-randomized among the trap stations each time that the traps were emptied (approx. weekly, after periodic WTB flights). Trap catches of males and females were normalized by the available trapping surface area for each trap type.
Statistical Analyses. Analyses of treatment effects for the tests of trap type were performed by using Friedman's non-parametric analysis of variance or a sign test, depending on the number of treatments. (See Zar, J. H. 2010. Biostatistical Analysis. 5th ed. Pearson Prentice Hall, Englewood Cliffs, N.J.) Analysis of treatment effects for the Rain•X experiment was performed by using a Wilcoxon paired sample test. Id. Multiple comparisons for experiments with more than two treatments were performed with an a posteriori Nemenyi test with experimentwise α=0.05. Id. In all cases, male and female WTB were analyzed separately. Proportions of female WTB responding to treatments were calculated and 95% confidence intervals determined by using the Clopper-Pearson method. Id.

[2] = test system: walnut twig beetle (WTB), Pityophthorus juglandis; experiment: Example 1 Field Test 1: flight response to X and related isomers, yellow sticky card traps; assay type: in vivo
Procedure: Field Bioassays of Semiochemicals. […] Contech Enterprises Inc., Delta, British Columbia, Canada) and attached to yellow sticky card traps ([…], OK). In addition, synthesized (+) and (-) enantiomers of trans-conophthorin were tested in 400 μl polyethylene Eppendorf microcentrifuge tubes. Four field studies were conducted (Table 2) that tested the flight responses to: 3-methyl-2-buten-l-ol and related isomers (Field Test 1); 3-methyl-2-buten-l-ol with and without racemic trans-conophthorin (Field Test 2); 3-methyl-2-buten-l-ol with and without the purified enantiomers of trans-conophthorin (Field Test 3); and 3-methyl-2-buten-l-ol with and without racemic chalcogran (Field Test 4). [table] Statistical Analysis. Field Tests 1-4 were each analyzed for treatment effect by using Friedman's non-parametric analysis of variance. (See Zar, J. H. 2010. Biostatistical Analysis, 5th Ed. Pearson Prentice Hall, New Jersey). Males and females were subjected to separate analyses. All treatments within experiments yielding a significant treatment effect were compared by using an a posteriori Nemenyi test (Zar 2010) with experimentwise α=0.05. Sex ratios of responding WTB were determined using Cochran's method for unbiased sampling (See Cochran, W. G. 1977. Sampling Techniques, 3rd ed. John Wiley, New York), with 95% confidence intervals calculated by using the Clopper-Pearson method. (See Zar, J. H. 2010. Biostatistical Analysis, 5th Ed. Pearson Prentice Hall, New Jersey).

WTB [3] = experiment: Example 2 Field Test 1: X in combination with X-3 and X-2; assay type: in vivo, Pityophthorus juglandis; details: 4-unit Lindgren funnel traps
Procedure: Field Bioassays of 3-methyl-2-buten-1-ol in combination with other compounds. The flight response of WTB to 3-methyl-2-buten-1-ol in combination with other compounds was also tested. […] Louis, Mo. […] The five treatments were replicated in three spatial blocks and the treatments were re-randomized among the five trap stations in a block each time the traps were emptied (nearly every day). [table] Statistical Analyses. Analysis of treatment effects for the pouch vs. bottle experiment was done by using a sign test. (See Zar, J. H. 2010. Biostatistical Analysis. 5th ed. Pearson Prentice Hall, Englewood Cliffs, N.J.) The other four experiments were analyzed for treatment effect by using Friedman's non-parametric analysis of variance. Id. In all experiments, males and females were analyzed separately. All treatments within experiments yielding a significant treatment effect were compared by using an a posteriori Nemenyi test with experimentwise α=0.05. Id. For all experiments, differences among proportions of female WTB responding to treatments were analyzed by comparing 95% confidence intervals determined with the Clopper-Pearson method. Id.

WTB [4] = experiment: Example 2 Field Test 3: X and racemic trans-pityol; assay type: in vivo, Pityophthorus juglandis; details: 4-unit Lindgren funnel traps
Procedure: Finally, a flight bioassay of the effect of the compound racemic trans-“pityol” [2-(1-hydroxy-1-methylethyl)-5-methyltetrahydrofuran] was conducted in late summer/early fall at Wolfskill Experimental Orchards. Pityol is a component of the aggregation pheromone of conifer-infesting Pityophthorus species. The response of WTB to racemic trans-pityol (formulated in a polyvinylchloride plastic bubble cap release device, 40 mg load, 0.2 mg/d release rate at 20° C., product #300000272, Contech Enterprises) and pityol in combination with 3-methyl-2-buten-1-ol (release rate 15-80 mg/d, LDPE plastic pouch Contech) was tested (Table 3, Field Test 3). The four treatments were replicated in three spatial blocks and the treatments were re-randomized among the four trap stations in a block each time the traps were emptied (nearly every day).
Statistical Analyses. Analysis of treatment effects for the pouch vs. bottle experiment was done by using a sign test. (See Zar, J. H. 2010. Biostatistical Analysis. 5th ed. Pearson Prentice Hall, Englewood Cliffs, N.J.) The other four experiments were analyzed for treatment effect by using Friedman's non-parametric analysis of variance. Id. In all experiments, males and females were analyzed separately. All treatments within experiments yielding a significant treatment effect were compared by using an a posteriori Nemenyi test with experimentwise α=0.05. Id. For all experiments, differences among proportions of female WTB responding to treatments were analyzed by comparing 95% confidence intervals determined with the Clopper-Pearson method. Id.

[5] = about three months in summer, Davis CA, N=21
[6] = X 15-60 mg/d, X-3 and X-2 1.76 mg/d, N=42
[7] = X 15-80 mg/d, pityol 0.2 mg/d, N=93

## CC(C)=CCO [X, 3-methyl-2-buten-1-ol]
WTB [1]; 4-unit Lindgren funnel traps
  trap catches, female WTB: 160
  trap catches, male WTB: 110
WTB [1]; clear sticky panel traps
  trap catches, female WTB: 449
  trap catches, male WTB: 216
WTB [1]; funnel traps
  proportion of females responding: 0.59
WTB [1]; sticky traps
  proportion of females responding: 0.67
[2]
  flight attraction: attractive to males and females
[2]; Davis CA
  proportion of females responding: 0.65
[2]; [5]
  trap catches, female WTB: 438
  trap catches, male WTB: 233
WTB [3]
  proportion of females responding: 0.77
WTB [3]; [6]
  trap catches, female WTB: 636
  trap catches, male WTB: 193
WTB [4]
  proportion of females responding: 0.80
WTB [4]; [7]
  trap catches, female WTB: 2100
  trap catches, male WTB: 539
